{"source": "ChEMBL document CHEMBL4177563", "about": "“The medicinal chemistry of Chikungunya virus” (Bioorg Med Chem, 2017)", "key": {"Chikungunya virus [1]": {"test_system": "Chikungunya virus", "assay": "Antiviral activity against Chikungunya virus S-27 assessed as viral titer interferon loading", "assay_type": "functional"}, "Chikungunya virus [2]": {"test_system": "Chikungunya virus", "assay": "Antiviral activity against Chikungunya virus infected in African green monkey Vero cells", "assay_type": "functional, organism-based"}, "[3]": {"assay": "Cytotoxicity against African green monkey Vero cells assessed as reduction in cell viability", "assay_type": "cell-based", "settings": "chlorocebus sabaeus"}, "Chikungunya virus [4]": {"test_system": "Chikungunya virus", "assay": "Antiviral activity against Chikungunya virus infected in HEK293T cells assessed as reduction in infectious virus particle production by luciferase reporter gene assay", "assay_type": "functional, organism-based", "settings": "HEK-293T"}, "Aedes aegypti [5]": {"test_system": "Aedes aegypti", "assay": "Larvicidal activity against Aedes aegypti Paea assessed as mortality at 25 ug/ml after 24 hrs relative to control", "assay_type": "functional"}, "Aedes aegypti [6]": {"test_system": "Aedes aegypti", "assay": "Larvicidal activity against Aedes aegypti Paea assessed as mortality at 15 ug/ml after 24 hrs relative to control", "assay_type": "functional"}, "Aedes aegypti [7]": {"test_system": "Aedes aegypti", "assay": "Induction of oviposition deterrent activity in Aedes aegypti assessed as effective repellency at 20 ug/ml after 24 hrs by stereomicroscopic analysis relative to control", "assay_type": "functional"}, "Aedes aegypti [8]": {"test_system": "Aedes aegypti", "assay": "Induction of oviposition deterrent activity in Aedes aegypti assessed as effective repellency at 30 ug/ml after 24 hrs by stereomicroscopic analysis relative to control", "assay_type": "functional"}, "Aedes aegypti [9]": {"test_system": "Aedes aegypti", "assay": "Larvicidal activity against Aedes aegypti Paea assessed as mortality at 20 ug/ml after 24 hrs relative to control", "assay_type": "functional"}, "Aedes aegypti [10]": {"test_system": "Aedes aegypti", "assay": "Induction of oviposition deterrent activity in Aedes aegypti assessed as effective repellency at 10 ug/ml after 24 hrs by stereomicroscopic analysis relative to control", "assay_type": "functional"}, "Aedes aegypti [11]": {"test_system": "Aedes aegypti", "assay": "Larvicidal activity against Aedes aegypti Paea assessed as mortality at 10 ug/ml after 24 hrs relative to control", "assay_type": "functional"}, "Aedes aegypti [12]": {"test_system": "Aedes aegypti", "assay": "Induction of oviposition deterrent activity in Aedes aegypti assessed as effective repellency at 50 ug/ml after 24 hrs by stereomicroscopic analysis relative to control", "assay_type": "functional"}, "Aedes aegypti [13]": {"test_system": "Aedes aegypti", "assay": "Larvicidal activity against Aedes aegypti Paea assessed as mortality after 24 hrs", "assay_type": "functional, organism-based"}, "Aedes aegypti [14]": {"test_system": "Aedes aegypti", "assay": "Induction of oviposition deterrent activity in Aedes aegypti assessed as effective repellency at 40 ug/ml after 24 hrs by stereomicroscopic analysis relative to control", "assay_type": "functional"}, "Aedes aegypti [15]": {"test_system": "Aedes aegypti", "assay": "Larvicidal activity against Aedes aegypti Paea assessed as mortality at 5 ug/ml after 24 hrs relative to control", "assay_type": "functional"}, "Chikungunya virus [16]": {"test_system": "Chikungunya virus", "assay": "Antiviral activity against Chikungunya virus LR2006 OPY1 infected in human MRC5 cells after 48 hrs by indirect immunofluorescence analysis", "assay_type": "functional, organism-based", "settings": "LR2006 OPY1, MRC5, 48 h"}, "Chikungunya virus [17]": {"test_system": "Chikungunya virus", "assay": "Antiviral activity against Chikungunya virus LR2006 OPY1 infected in human MRC5 cells after 30 mins by indirect immunofluorescence analysis", "assay_type": "functional, organism-based", "settings": "LR2006 OPY1, MRC5, 0.5 h"}, "[18]": {"assay": "Selectivity index, ratio of CC50 for human MRC5 cells to IC50 for Chikungunya virus LR2006 OPY1", "assay_type": "toxicity", "settings": "read-out: Ratio CC50/IC50"}, "Chikungunya virus [19]": {"test_system": "Chikungunya virus", "assay": "Antiviral activity against Chikungunya virus LR2006 OPY1 infected in human MRC5 cells after 60 mins by indirect immunofluorescence analysis", "assay_type": "functional, organism-based", "settings": "LR2006 OPY1, MRC5, 1 h"}, "[20]": {"assay": "Cytotoxicity against African green monkey Vero cells assessed as reduction in cell viability after 18 hrs by neutral red staining-based microscopic analysis", "settings": "chlorocebus sabaeus"}, "[21]": {"assay": "Selectivity index, ratio of CC50 for African green monkey Vero cells to IC50 for Chikungunya virus LR2006 OPY1", "assay_type": "toxicity", "settings": "read-out: Ratio CC50/IC50"}, "[22]": {"assay": "Cytotoxicity against human MRC5 cells assessed as reduction in cell viability after 48 hrs by neutral red staining-based microscopic analysis"}, "Chikungunya virus [23]": {"test_system": "Chikungunya virus", "assay": "Antiviral activity against Chikungunya virus LR2006 OPY1 infected in African green monkey BGM cells after 24 hrs by luciferase reporter gene assay", "assay_type": "functional, organism-based"}, "Chikungunya virus [24]": {"test_system": "Chikungunya virus", "assay": "Antiviral activity against Chikungunya virus 899 infected in African green monkey BGM cells assessed as reduction in viral infectious progeny after 48 hrs by titration assay", "assay_type": "functional, organism-based", "settings": "Chikungunya virus, 899, BGM"}, "Chikungunya virus [25]": {"test_system": "Chikungunya virus", "assay": "Antiviral activity against Chikungunya virus SGP011 by qRT-PCR analysis", "assay_type": "functional, organism-based"}, "Chikungunya virus [26]": {"test_system": "Chikungunya virus", "assay": "Antiviral activity against Chikungunya virus 899 assessed as inhibition of virus-induced cytopathogenic effect measured on day 5 post infection by MTS/PMS based microscopic analysis", "assay_type": "functional, organism-based", "settings": "Chikungunya virus, 899, 120 h"}, "Chikungunya virus [27]": {"test_system": "Chikungunya virus", "assay": "Antiviral activity against Chikungunya virus CNR20235 infected in buffalo green monkey BGM cells after 24 hrs by luciferase reporter gene assay", "assay_type": "functional, organism-based"}, "Chikungunya virus [28]": {"test_system": "Chikungunya virus", "assay": "Antiviral activity against Chikungunya virus 899 by qRT-PCR analysis", "assay_type": "functional, organism-based"}, "Chikungunya virus [29]": {"test_system": "Chikungunya virus", "assay": "Antiviral activity against Chikungunya virus SGP011 infected in African green monkey BGM cells assessed as reduction in viral infectious progeny after 48 hrs by titration assay", "assay_type": "functional, organism-based"}, "Chikungunya virus [30]": {"test_system": "Chikungunya virus", "assay": "Antiviral activity against Chikungunya virus SGP011 infected in African green monkey BGM cells after 24 hrs by luciferase reporter gene assay", "assay_type": "functional, organism-based"}, "Aedes aegypti [31]": {"test_system": "Aedes aegypti", "assay": "Induction of oviposition deterrent activity in Aedes aegypti assessed as effective repellency at 60 ug/ml after 24 hrs by stereomicroscopic analysis relative to control", "assay_type": "functional"}, "Aedes aegypti [32]": {"test_system": "Aedes aegypti", "assay": "Larvicidal activity against Aedes aegypti Paea assessed as mortality at 21 ug/ml after 24 hrs relative to control", "assay_type": "functional"}, "Aedes aegypti [33]": {"test_system": "Aedes aegypti", "assay": "Induction of oviposition deterrent activity in Aedes aegypti assessed as effective repellency at 15 ug/ml after 24 hrs by stereomicroscopic analysis relative to control", "assay_type": "functional"}, "Aedes aegypti [34]": {"test_system": "Aedes aegypti", "assay": "Larvicidal activity against Aedes aegypti Paea assessed as mortality at 28 ug/ml after 24 hrs relative to control", "assay_type": "functional"}, "Aedes aegypti [35]": {"test_system": "Aedes aegypti", "assay": "Larvicidal activity against Aedes aegypti Paea assessed as mortality at 14 ug/ml after 24 hrs relative to control", "assay_type": "functional"}, "Aedes aegypti [36]": {"test_system": "Aedes aegypti", "assay": "Induction of oviposition deterrent activity in Aedes aegypti assessed as effective repellency at 75 ug/ml after 24 hrs by stereomicroscopic analysis relative to control", "assay_type": "functional"}, "Aedes aegypti [37]": {"test_system": "Aedes aegypti", "assay": "Larvicidal activity against Aedes aegypti Paea assessed as mortality at 35 ug/ml after 24 hrs relative to control", "assay_type": "functional"}, "Aedes aegypti [38]": {"test_system": "Aedes aegypti", "assay": "Larvicidal activity against Aedes aegypti Paea assessed as mortality at 7 ug/ml after 24 hrs relative to control", "assay_type": "functional"}, "Aedes aegypti [39]": {"test_system": "Aedes aegypti", "assay": "Induction of oviposition deterrent activity in Aedes aegypti assessed as effective repellency at 45 ug/ml after 24 hrs by stereomicroscopic analysis relative to control", "assay_type": "functional"}}}
{"smiles": "Sc1ncnc2nc[nH]c12", "note": "[MERCAPTOPURINE ANHYDROUS]", "values": [{"measurement": "Activity", "setting": "Chikungunya virus [1]", "result": "47 - 67 U/ml"}]}
{"smiles": "CC/C(C)=C/C(=O)O[C@@H]1[C@H](C)C[C@H]2O[C@]1(O)[C@@H](O)[C@H]1CC[C@H](O1)C(C)(C)/C=C/[C@H](C)C2=O", "values": [{"measurement": "EC50", "setting": "Chikungunya virus [2]", "result": "< 0.8", "unit": "µg/mL"}, {"measurement": "CC50", "setting": "[3]", "result": 60.9, "unit": "µg/mL"}]}
{"smiles": "O=C(O[C@@H]1Cc2c(O)cc(O)cc2O[C@@H]1c1cc(O)c(O)c(O)c1)c1cc(O)c(O)c(O)c1", "note": "[EPIGALOCATECHIN GALLATE]", "values": [{"measurement": "EC50", "setting": "Chikungunya virus [4]", "result": 6.54, "unit": "µg/mL"}]}
{"smiles": "CC(C)=CCCC(C)c1ccc(C)cc1", "note": "(stereo not drawn)", "values": [{"measurement": "Activity", "setting": "Aedes aegypti [5]", "result": 97.1, "unit": "%"}, {"measurement": "Activity", "setting": "Aedes aegypti [6]", "result": 62.7, "unit": "%"}, {"measurement": "Activity", "setting": "Aedes aegypti [7]", "result": 75.62, "unit": "%"}, {"measurement": "Activity", "setting": "Aedes aegypti [8]", "result": 80.87, "unit": "%"}, {"measurement": "Activity", "setting": "Aedes aegypti [9]", "result": 84.2, "unit": "%"}, {"measurement": "Activity", "setting": "Aedes aegypti [10]", "result": 70.28, "unit": "%"}, {"measurement": "Activity", "setting": "Aedes aegypti [11]", "result": 45.3, "unit": "%"}, {"measurement": "Activity", "setting": "Aedes aegypti [12]", "result": 89.99, "unit": "%"}, {"measurement": "IC50", "setting": "Aedes aegypti [13]", "result": 11.2, "unit": "µg/mL"}, {"measurement": "IC90", "setting": "Aedes aegypti [13]", "result": 22, "unit": "µg/mL"}, {"measurement": "Activity", "setting": "Aedes aegypti [14]", "result": 86, "unit": "%"}, {"measurement": "Activity", "setting": "Aedes aegypti [15]", "result": 24.5, "unit": "%"}]}
{"smiles": "CCOC(=O)c1c(CSc2ccccc2)n(C)c2cc(Br)c(O)c(CN(C)C)c12", "note": "[UMIFENOVIR]", "values": [{"measurement": "IC50", "setting": "Chikungunya virus [16]", "result": 12.2, "unit": "µM"}, {"measurement": "IC50", "setting": "Chikungunya virus [17]", "result": 23.1, "unit": "µM"}, {"measurement": "selectivity ratio", "setting": "[18]", "result": 36}, {"measurement": "IC50", "setting": "Chikungunya virus [19]", "result": 31.7, "unit": "µM"}, {"measurement": "CC50 at 18 h", "setting": "[20]", "result": 680, "unit": "µM"}, {"measurement": "selectivity ratio", "setting": "[21]", "result": 28}, {"measurement": "CC50 at 48 h", "setting": "[22]", "result": 376, "unit": "µM"}]}
{"smiles": "CC(=O)O[C@@]12C[C@@H](C)[C@@]3(O)[C@@H](C=C(CO)C[C@]4(O)C(=O)C(C)=C[C@@H]34)[C@@H]1C2(C)C", "note": "[PROSTRATIN]", "values": [{"measurement": "EC50", "setting": "Chikungunya virus [23]", "result": 0.2, "unit": "µM"}, {"measurement": "EC50", "setting": "Chikungunya virus [24]", "result": 7.1, "unit": "µM"}, {"measurement": "EC50", "setting": "Chikungunya virus [25]", "result": 0.3, "unit": "µM"}, {"measurement": "EC50", "setting": "Chikungunya virus [26]", "result": 8, "unit": "µM"}, {"measurement": "EC50", "setting": "Chikungunya virus [27]", "result": 0.5, "unit": "µM"}, {"measurement": "EC50", "setting": "Chikungunya virus [28]", "result": 7.6, "unit": "µM"}, {"measurement": "EC50", "setting": "Chikungunya virus [29]", "result": 0.4, "unit": "µM"}, {"measurement": "EC50", "setting": "Chikungunya virus [30]", "result": 0.2, "unit": "µM"}]}
{"smiles": "CC(C)=CCCC(C)[C@@]1(O)CC=C(C)CC1", "note": "(stereo partly drawn)", "values": [{"measurement": "Activity", "setting": "Aedes aegypti [31]", "result": 85.45, "unit": "%"}, {"measurement": "Activity", "setting": "Aedes aegypti [8]", "result": 77.03, "unit": "%"}, {"measurement": "Activity", "setting": "Aedes aegypti [32]", "result": 63.2, "unit": "%"}, {"measurement": "Activity", "setting": "Aedes aegypti [33]", "result": 72.3, "unit": "%"}, {"measurement": "Activity", "setting": "Aedes aegypti [34]", "result": 84.7, "unit": "%"}, {"measurement": "Activity", "setting": "Aedes aegypti [35]", "result": 42.6, "unit": "%"}, {"measurement": "Activity", "setting": "Aedes aegypti [36]", "result": 88.99, "unit": "%"}, {"measurement": "Activity", "setting": "Aedes aegypti [37]", "result": 98.1, "unit": "%"}, {"measurement": "IC50", "setting": "Aedes aegypti [13]", "result": 15.8, "unit": "µg/mL"}, {"measurement": "IC90", "setting": "Aedes aegypti [13]", "result": 30.3, "unit": "µg/mL"}, {"measurement": "Activity", "setting": "Aedes aegypti [38]", "result": 24.8, "unit": "%"}, {"measurement": "Activity", "setting": "Aedes aegypti [39]", "result": 81.13, "unit": "%"}]}
